Measured values published in patent publication US20130172320A1, “PYRIDO [4,3-B] INDOLE AND PYRIDO [3,4-B] INDOLE DERIVATIVES AND METHODS OF USE” (priority 2010, published 2013).

Columns and labels:
[1] = target: T1, human recombinant serotonin (5-Hydroxytryptamine) 5-HT6 receptor (Homo sapiens, UniProt P50406); test: Serotonin 5-HT6 radioligand binding ([3H]LSD); conditions: compound at 0.1 μM; read-out: Percentage inhibition of ligand binding, Serotonin (0.1 μM) 5-HT6
T1 construct: expressed in transfected cells; host or cells: human HeLa cells
Experimental: To evaluate in radioligand binding assays the activity of compounds of the invention, human recombinant serotonin (5-Hydroxytryptamine) 5-HT6 receptor expressed in human HeLa cells (Monsma, F. Jr. et al, Mol. Pharmacol. 43:320, 1993) in a modified Tris-HCl buffer (50 mM Tris-HCl, pH 7.4, 150 mM NaCl, 2 mM Ascorbic Acid, 0.001% BSA) was used. Compounds of the invention were incubated with 1.5 nM [3H]Lysergic acid diethylamide (LSD) for 120 min at 37° C. Non-specific binding was estimated in the presence of 5 μM Serotonin (5-HT). Receptor proteins were filtered and washed, the filters were then counted to determine [3H]LSD specifically bound. Compounds were screened at 1 μM or lower, using 1% DMSO as vehicle. Biochemical assay results are presented as the percent inhibition of specific binding in Table 4.

[2] = target: T2, human recombinant serotonin (5-Hydroxytryptamine) 5-HT2C receptor (Homo sapiens, UniProt P28335); test: Serotonin 5-HT2C radioligand binding ([3H]Mesulergine); conditions: compound at 0.1 μM; read-out: Percentage inhibition of ligand binding, Serotonin (0.1 μM) 5-HT2C
T2 construct: expressed in transfected cells; host or cells: Chinese hamster ovary (CHO) K1 cells
T2 sequence (P28335 33-458): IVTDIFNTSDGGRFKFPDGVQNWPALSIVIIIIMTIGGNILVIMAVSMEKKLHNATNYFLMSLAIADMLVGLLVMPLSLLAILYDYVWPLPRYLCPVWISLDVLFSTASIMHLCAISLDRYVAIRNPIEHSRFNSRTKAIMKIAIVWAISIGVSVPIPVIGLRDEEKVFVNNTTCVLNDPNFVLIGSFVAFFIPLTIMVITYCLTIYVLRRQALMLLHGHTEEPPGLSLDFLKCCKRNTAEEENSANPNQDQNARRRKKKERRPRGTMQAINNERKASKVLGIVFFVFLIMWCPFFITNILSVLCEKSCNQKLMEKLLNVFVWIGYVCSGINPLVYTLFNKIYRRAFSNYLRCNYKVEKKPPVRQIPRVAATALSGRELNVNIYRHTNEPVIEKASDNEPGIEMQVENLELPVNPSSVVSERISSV
Experimental: To evaluate in radioligand binding assays the activity of compounds of the invention, human recombinant serotonin (5-Hydroxytryptamine) 5-HT2C receptor expressed in Chinese hamster ovary (CHO) K1 cells (Wolf, W. et al, J. Neurochem. 69:1449, 1997) in a modified Tris-HCl buffer (50 mM Tris-HCl, pH 7.4, 0.1% Ascorbic Acid, 10 μM Pargyline) was used. Compounds of the invention were incubated with 1 nM [^3H]Mesulergine for 60 min at 25° C. Non-specific binding was estimated in the presence of 1 μM Mianserin. Receptor proteins were filtered and washed, the filters were then counted to determine [^3H]Mesulergine specifically bound. Compounds were screened at 1 μM or lower, using 1% DMSO as vehicle. Biochemical assay results are presented as the percent inhibition of specific binding in Table 4.

[3] = target: human recombinant histamine H1 receptor (Homo sapiens, UniProt P35367); test: Histamine H1 radioligand binding ([3H]Pyrilamine); conditions: compound at 1 μM; 1.2 nM [3H]Pyrilamine; read-out: Binding data (Percentage inhibition) Histamine H1 (1 μM)
Experimental: To evaluate in radioligand binding assays the activity of compounds of the invention, human recombinant histamine H1 receptor expressed in Chinese hamster ovary (CHO) cells (De Backer, M. et al, Biochem. Biophys. Res. Comm. 197(3):1601, 1993) in a modified Tris-HCl buffer (50 mM Tris-HCl, pH 7.4, 2 mM MgCl2, 100 mM NaCl, 250 mM Sucrose) was used. Compounds of the invention were incubated with 1.2 nM [^3H]Pyrilamine for 180 min at 25° C. Non-specific binding was estimated in the presence of 1 μM Pyrilamine. Receptor proteins were filtered and washed, the filters were then counted to determine [^3H]Pyrilamine specifically bound. Compounds were screened at 1 μM or lower, using 1% DMSO as vehicle. Biochemical assay results are presented as the percent inhibition of specific binding in Table 2.

[4] = target: human recombinant serotonin (5-Hydroxytryptamine) 5-HT7 receptor (Homo sapiens, UniProt P34969); test: Serotonin 5-HT7 radioligand binding ([3H]LSD); conditions: compound at 0.1 μM; read-out: Percentage inhibition of ligand binding, Serotonin (0.1 μM) 5-HT7
Experimental: To evaluate in radioligand binding assays the activity of compounds of the invention, human recombinant serotonin (5-Hydroxytryptamine) 5-HT7 receptor expressed in Chinese hamster ovary (CHO) cells (Roth, B. et al, J. Pharmacol. Exp. Ther. 268:1403, 1994; Shen, Y. et al, J. Biol. Chem. 268:18200, 1993) in a modified Tris-HCl buffer (50 mM Tris-HCl, pH 7.4, 10 mM MgCl2, 0.5 mM EDTA) was used. Compounds of invention were incubated with 5.5 nM [^3H] Lysergic acid diethylamide (LSD) for 2 h at 25° C. Non-specific binding was estimated in the presence of 10 μM Serotonin (5-HT). Receptor proteins were filtered and washed, the filters were then counted to determine [^3H]LSD specifically bound. Compounds were screened at 1 μM or lower, using 1% DMSO as vehicle. Biochemical assay results are presented as the percent inhibition of specific binding in Table 4.

[5] = target: human recombinant dopamine D2L receptor (Homo sapiens, UniProt P14416); test: Dopamine D2L radioligand binding ([3H]Spiperone); conditions: compound at 1 μM; read-out: Percentage inhibition of ligand binding, Dopamine (1 μM) D2L
Experimental: To evaluate in radioligand binding assays the activity of compounds of the invention, human recombinant dopamine D2L receptor expressed in Chinese hamster ovary (CHO) cells (Grandy, D. et al, Proc. Natl. Acad. Sci. USA. 86:9762, 1989; Hayes, G. et al, Mol. Endocrinol. 6:920, 1992) in a modified Tris-HCl buffer (50 mM Tris-HCl, pH 7.4, 1.4 mM Ascorbic Acid, 0.001% BSA, 150 mM NaCl) was used. Compounds of the invention were incubated with 0.16 nM [^3H]Spiperone for 120 min at 25° C. Non-specific binding was estimated in the presence of 10 μM Haloperidol. Receptor proteins were filtered and washed, the filters were then counted to determine [^3H]Spiperone specifically bound. Compounds were screened at 1 μM or lower, using 1% DMSO as vehicle. Biochemical assay results are presented as the percent inhibition of specific binding in Table 3.

[6] = target: T3, human recombinant serotonin (5-Hydroxytryptamine) 5-HT2A receptor (Homo sapiens, UniProt P28223); test: Serotonin 5-HT2A radioligand binding ([3H]Ketanserin); conditions: compound at 0.1 μM; read-out: Percentage inhibition of ligand binding, Serotonin (0.1 μM) 5-HT2A
T3 construct: expressed in transfected cells; host or cells: Chinese hamster ovary (CHO) K1 cells
Experimental: To evaluate in radioligand binding assays the activity of compounds of the invention, human recombinant serotonin (5-Hydroxytryptamine) 5-HT2A receptor expressed in Chinese hamster ovary (CHO) K1 cells (Bonhaus, D. et al, Br. J. Pharmacol. 115:622, 1995; Saucier, C. et al, J. Neurochem. 68:1998, 1997) in a 50 mM Tris-HCl buffer, pH 7.4, was used. Compounds of the invention were incubated with 0.5 nM [^3H]Ketanserin for 60 min at 25° C. Non-specific binding was estimated in the presence of 1 μM Mianserin. Receptor proteins were filtered and washed, the filters were then counted to determine [^3H]Ketanserin specifically bound. Compounds were screened at 1 μM or lower, using 1% DMSO as vehicle. Biochemical assay results are presented as the percent inhibition of specific binding in Table 4.

human recombinant histamine H1 receptor, sequence (P35367 whole entry): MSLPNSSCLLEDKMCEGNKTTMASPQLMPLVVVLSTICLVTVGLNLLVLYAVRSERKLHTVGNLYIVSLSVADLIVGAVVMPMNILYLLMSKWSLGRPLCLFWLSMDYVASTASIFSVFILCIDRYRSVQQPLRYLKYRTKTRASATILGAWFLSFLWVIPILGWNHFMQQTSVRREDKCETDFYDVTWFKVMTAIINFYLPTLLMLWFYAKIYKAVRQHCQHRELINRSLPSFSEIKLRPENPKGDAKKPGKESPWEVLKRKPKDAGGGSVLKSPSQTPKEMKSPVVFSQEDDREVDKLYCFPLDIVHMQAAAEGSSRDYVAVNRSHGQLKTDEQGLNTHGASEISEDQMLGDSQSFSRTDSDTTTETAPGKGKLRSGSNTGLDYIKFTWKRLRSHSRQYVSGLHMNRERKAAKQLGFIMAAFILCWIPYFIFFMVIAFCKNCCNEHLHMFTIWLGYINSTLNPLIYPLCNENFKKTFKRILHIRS
human recombinant serotonin (5-Hydroxytryptamine) 5-HT7 receptor, sequence (P34969 whole entry): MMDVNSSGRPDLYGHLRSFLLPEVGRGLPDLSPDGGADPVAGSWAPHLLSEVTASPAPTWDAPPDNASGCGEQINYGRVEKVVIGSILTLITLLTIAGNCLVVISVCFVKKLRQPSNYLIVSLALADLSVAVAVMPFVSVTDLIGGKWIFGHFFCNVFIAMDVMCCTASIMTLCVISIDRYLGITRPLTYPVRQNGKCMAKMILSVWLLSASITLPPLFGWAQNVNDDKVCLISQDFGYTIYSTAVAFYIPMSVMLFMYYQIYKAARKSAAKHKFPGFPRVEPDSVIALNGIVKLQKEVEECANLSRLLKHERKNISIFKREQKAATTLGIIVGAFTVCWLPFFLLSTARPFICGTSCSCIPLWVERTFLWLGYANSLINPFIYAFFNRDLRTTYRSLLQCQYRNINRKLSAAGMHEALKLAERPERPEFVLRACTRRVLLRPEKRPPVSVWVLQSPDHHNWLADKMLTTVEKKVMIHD
human recombinant dopamine D2L receptor, sequence (P14416 whole entry): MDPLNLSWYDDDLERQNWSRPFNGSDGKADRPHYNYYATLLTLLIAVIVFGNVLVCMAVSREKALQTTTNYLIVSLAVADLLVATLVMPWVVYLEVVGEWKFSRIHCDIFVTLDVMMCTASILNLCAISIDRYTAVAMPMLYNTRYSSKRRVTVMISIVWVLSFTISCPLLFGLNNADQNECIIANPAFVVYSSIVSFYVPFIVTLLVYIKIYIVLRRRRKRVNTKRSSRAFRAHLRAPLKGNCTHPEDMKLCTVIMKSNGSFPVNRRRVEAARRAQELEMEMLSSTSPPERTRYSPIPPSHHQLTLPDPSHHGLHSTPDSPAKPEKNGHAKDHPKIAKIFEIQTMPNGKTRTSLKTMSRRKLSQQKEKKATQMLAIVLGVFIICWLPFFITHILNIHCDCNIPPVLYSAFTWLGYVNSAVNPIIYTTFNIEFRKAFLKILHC
T3 sequence (P28223 whole entry): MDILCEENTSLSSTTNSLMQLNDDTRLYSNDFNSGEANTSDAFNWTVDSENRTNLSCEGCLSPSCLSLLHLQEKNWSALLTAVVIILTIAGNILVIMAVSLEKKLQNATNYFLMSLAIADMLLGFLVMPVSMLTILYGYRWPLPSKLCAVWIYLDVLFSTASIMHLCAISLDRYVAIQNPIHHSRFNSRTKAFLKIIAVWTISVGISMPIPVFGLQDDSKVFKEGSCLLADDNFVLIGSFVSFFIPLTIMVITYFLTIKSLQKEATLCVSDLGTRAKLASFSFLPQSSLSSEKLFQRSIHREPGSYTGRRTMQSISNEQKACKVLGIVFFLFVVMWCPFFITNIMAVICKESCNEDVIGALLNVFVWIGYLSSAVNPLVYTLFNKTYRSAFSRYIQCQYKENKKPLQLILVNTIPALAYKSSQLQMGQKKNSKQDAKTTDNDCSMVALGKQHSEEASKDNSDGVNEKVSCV
T1 sequence (P50406 whole entry): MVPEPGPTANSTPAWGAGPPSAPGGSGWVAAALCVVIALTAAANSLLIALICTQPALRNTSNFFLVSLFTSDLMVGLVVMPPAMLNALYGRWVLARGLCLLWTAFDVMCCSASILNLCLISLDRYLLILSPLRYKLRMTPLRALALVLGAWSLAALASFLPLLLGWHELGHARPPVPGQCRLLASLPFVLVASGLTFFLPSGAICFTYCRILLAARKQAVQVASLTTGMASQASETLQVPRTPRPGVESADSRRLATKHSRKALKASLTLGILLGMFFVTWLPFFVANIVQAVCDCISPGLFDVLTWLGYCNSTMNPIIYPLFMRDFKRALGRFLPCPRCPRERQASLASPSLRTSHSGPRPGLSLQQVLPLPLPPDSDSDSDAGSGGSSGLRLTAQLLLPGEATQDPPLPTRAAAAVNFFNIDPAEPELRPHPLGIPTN

Row | Compound | inhibition at 0.1 µM [1] [%] | inhibition at 0.1 µM [2] [%] | inhibition at 1 µM [3] [%] | inhibition at 0.1 µM [4] [%] | inhibition at 1 µM [5] [%] | inhibition at 0.1 µM [6] [%]
1 | Cc1ccc2[nH]c3c(c2c1)CN(C)CC3(C)CCc1ccccc1 (stereo not drawn) [Compound 43] | 9 | -4 | 93 | -23 | 23 | 15
2 | Cc1ccc2c(c1)c1c(n2C)C(C)(CCc2ccccc2)CN(C)C1 (stereo not drawn) [Compound 44] | 17 | 12 | 101 | 29 | 33 | 4
3 | Cc1ccc2c(c1)c1c(n2C)C(C)(CCc2ccc(C)nc2)CN(C)C1 (stereo not drawn) [Compound 45] | -4 | 6 | 99 | -6 | 5 | 1
4 | Cc1ccc2[nH]c3c(c2c1)CN(C)CC3(C)CCc1ccc(C)nc1 (stereo not drawn) [Compound 46, 2,4,8-Trimethyl-4-[2-(6-methyl-pyridin-3-yl)-ethyl]-2,3,4,5-tetrahydro-1H-pyrido[4,3-b]indole] | 6 | 8 | 34 | -10 | 3 | 7
